The values below are quoted from earlier work in patent US7300792B2, “Lux expression in eukaryotic cells” (University of Tennessee Research Foundation, priority 2002, dated 2007).

SMILES strings stand for the structures.

The data set relates to lower eukaryotes. The conditions noted are these: lower eukaryotes (yeast).

For `CCCCCCCCCC=O` [n-decylaldehyde], the Toxicity result is reported as “toxic to lower eukaryotes”.
